Source: the NIST ThermoML archive (doi:10.1016/j.jct.2014.09.005)

Key:
[1] = xn = mol fraction of the nth substance listed; settings: 101 kPa, Liquid; for viscosity: Capillary tube (Ostwald / Ubbelohde) method; for mass density: Vibrating tube method
[2] = refractive index (Na D-line) (dimensionless); xn = mol fraction of the nth substance listed; settings: 101 kPa, Liquid, Standard Abbe refractometry

NC1CCCCC1 [cyclohexylamine] + CCCCCCCCCCO
Settings	mass density, [1] [kg/m3]	refractive index, [2]	viscosity, [1] [mPa·s]
293.15 K, x2 = 0.0957	–	1.4563	–
293.15 K, x2 = 0.153	860.33	1.45514	3.133
293.15 K, x2 = 0.1955	–	1.45413	–
293.15 K, x2 = 0.1956	858.62	–	3.48
293.15 K, x2 = 0.2939	855.14	1.45191	4.452
293.15 K, x2 = 0.3417	853.45	1.45101	5.014
293.15 K, x2 = 0.4077	851.25	1.44965	5.81
293.15 K, x2 = 0.4581	849.54	1.44855	6.48
293.15 K, x2 = 0.5059	847.91	1.44765	7.159
293.15 K, x2 = 0.5401	846.76	–	7.628
293.15 K, x2 = 0.6042	844.53	1.44562	8.558
293.15 K, x2 = 0.6538	842.75	1.44463	9.276
293.15 K, x2 = 0.7021	840.98	1.44358	9.963
293.15 K, x2 = 0.8084	837.02	1.44133	11.52
293.15 K, x2 = 0.8868	834.1	1.43957	12.69
298.15 K, x2 = 0.0957	–	1.45392	–
298.15 K, x2 = 0.153	856.19	1.45279	2.749
298.15 K, x2 = 0.1955	–	1.45174	–
298.15 K, x2 = 0.1956	854.54	–	3.049
298.15 K, x2 = 0.2939	851.2	1.44964	3.853
298.15 K, x2 = 0.3417	849.56	1.44874	4.308
298.15 K, x2 = 0.4077	847.42	1.44743	4.923
298.15 K, x2 = 0.4581	845.76	1.44648	5.456
298.15 K, x2 = 0.5059	844.17	1.44554	5.991
298.15 K, x2 = 0.5401	843.04	1.44481	6.38
298.15 K, x2 = 0.6042	840.86	1.44365	7.124
298.15 K, x2 = 0.6538	839.13	1.44254	7.689
298.15 K, x2 = 0.7021	837.39	1.44141	8.24
298.15 K, x2 = 0.8084	833.53	1.43935	9.512
298.15 K, x2 = 0.8868	830.66	1.43762	10.41
303.15 K, x2 = 0.0957	–	1.4514	–
303.15 K, x2 = 0.153	851.99	1.45031	2.406
303.15 K, x2 = 0.1955	–	1.44938	–
303.15 K, x2 = 0.1956	850.41	–	2.663
303.15 K, x2 = 0.2939	847.19	1.44747	3.347
303.15 K, x2 = 0.3417	845.61	1.44642	3.711
303.15 K, x2 = 0.4077	843.53	1.44514	4.216
303.15 K, x2 = 0.4581	841.91	1.44424	4.654
303.15 K, x2 = 0.5059	840.37	1.44335	5.075
303.15 K, x2 = 0.5401	839.27	1.44256	5.393
303.15 K, x2 = 0.6042	837.14	1.44137	5.985
303.15 K, x2 = 0.6538	835.46	1.44039	6.457
303.15 K, x2 = 0.7021	833.76	1.43943	6.893
303.15 K, x2 = 0.8084	829.98	1.43724	7.904
303.15 K, x2 = 0.8868	827.17	1.43565	8.649

NC1CCCCC1 [cyclohexylamine] + CCCCCCCO
Settings	mass density, [1] [kg/m3]	refractive index, [2]	viscosity, [1] [mPa·s]
293.15 K, x2 = 0.1018	863.57	–	2.454
293.15 K, x2 = 0.1499	861.92	1.45459	2.635
293.15 K, x2 = 0.1996	860.22	1.45301	2.838
293.15 K, x2 = 0.2982	856.82	1.44986	3.308
293.15 K, x2 = 0.3979	853.09	1.44669	3.844
293.15 K, x2 = 0.4004	–	1.44661	–
293.15 K, x2 = 0.4465	851.2	1.44519	4.118
293.15 K, x2 = 0.4931	849.3	1.44365	4.381
293.15 K, x2 = 0.5432	847.06	1.44192	4.66
293.15 K, x2 = 0.6008	844.43	1.43985	4.98
293.15 K, x2 = 0.6598	841.57	1.43777	5.267
293.15 K, x2 = 0.6969	–	1.4364	–
293.15 K, x2 = 0.7019	839.35	–	5.475
293.15 K, x2 = 0.7479	836.94	1.43438	5.687
293.15 K, x2 = 0.7967	834.16	1.43236	5.916
293.15 K, x2 = 0.8466	831.39	1.4305	6.158
293.15 K, x2 = 0.8935	828.7	1.42866	6.421
293.15 K, x2 = 0.9432	825.75	1.42665	6.717
298.15 K, x2 = 0.1018	859.27	1.45356	2.178
298.15 K, x2 = 0.1499	857.64	1.45216	2.338
298.15 K, x2 = 0.1996	856.01	1.45053	2.502
298.15 K, x2 = 0.2982	852.71	1.44763	2.892
298.15 K, x2 = 0.3979	849.06	–	3.334
298.15 K, x2 = 0.4004	–	1.44444	–
298.15 K, x2 = 0.4465	–	1.44298	–
298.15 K, x2 = 0.4565	847.21	–	3.558
298.15 K, x2 = 0.4931	845.34	1.44143	3.776
298.15 K, x2 = 0.5432	843.14	1.43977	4.007
298.15 K, x2 = 0.5946	–	1.43797	–
298.15 K, x2 = 0.6008	840.57	–	4.267
298.15 K, x2 = 0.6598	837.76	1.43561	4.478
298.15 K, x2 = 0.7019	835.59	1.43404	4.682
298.15 K, x2 = 0.7479	833.22	1.43244	4.828
298.15 K, x2 = 0.7967	830.49	1.43053	5.057
298.15 K, x2 = 0.8466	827.78	1.42852	5.232
298.15 K, x2 = 0.8935	825.11	1.42666	5.43
298.15 K, x2 = 0.9432	822.21	1.42476	5.673
303.15 K, x2 = 0.1018	854.9	1.45099	1.931
303.15 K, x2 = 0.1499	853.33	1.44958	2.059
303.15 K, x2 = 0.1996	851.74	1.44805	2.204
303.15 K, x2 = 0.2982	848.55	1.4452	2.531
303.15 K, x2 = 0.3979	845	1.44224	2.895
303.15 K, x2 = 0.4465	843.2	1.44068	3.079
303.15 K, x2 = 0.4931	841.35	1.43923	3.258
303.15 K, x2 = 0.5432	839.17	1.43752	3.443
303.15 K, x2 = 0.5946	–	1.43575	–
303.15 K, x2 = 0.6008	836.68	1.43554	3.658
303.15 K, x2 = 0.6598	833.93	1.43355	3.694
303.15 K, x2 = 0.7019	831.8	1.432	4.005
303.15 K, x2 = 0.7479	829.48	1.43042	3.974
303.15 K, x2 = 0.7967	826.8	1.42836	4.317
303.15 K, x2 = 0.8466	824.12	1.42657	4.283
303.15 K, x2 = 0.8935	821.5	1.42455	4.444
303.15 K, x2 = 0.9432	818.64	1.42262	4.626
